We go through 25 molecules from US20250059165A1, “PIPERIDINYLPYRIDINYLCARBONITRILE DERIVATIVES AS INHIBITORS OF GLUTAMINYL-PEPTIDE CYCLOTRANSFERASE AND GLUTAMINYL-PEPTIDE CYCLOTRANSFERASE LIKE PROTEIN” (Boehringer Ingelheim International GmbH, priority 2023, published 2025).

Data set [1] deals with SIRPα signalling induced by Raji cells. The data set is described as follows: Assay B: SIRPα signalling assay using Raji cells. In kind it is cell-based. The conditions noted are these: Homo sapiens, 48 h compound incubation, Jurkat PathHunter SIRPαV1 reporter cells, read-out: Inhibition of SIRPα signalling induced by Raji cells: IC50. Here is the method:
(§1) Two cell types are independently used: the Raji cell line (lymphoblast-like human cell line derived from B lymphocytes from a Burkitt's lymphoma patient in 1963) and A549 cells (adenocarcinomic human alveolar basal epithelial cells).
(§2) Test compounds were dissolved in 100% DMSO and serially diluted into a white 384-well microtiter cell culture plate (PerkinElmer #60076780 in case of Raji assay; PDL-coated plates Greiner #781945 in case of A549 assay). 5000 Raji cells (ATCC #CC86) or 5000 A549 cells (ATCC #CCL-185) in Assay Complete Cell Plating reagent 30 (DiscoverX 93-0563R30B) were added per well. The assay plate was incubated for 48 h at 37° C., 95% humidity and 5% CO2. 15000 reporter cells (Jurkat PathHunter SIRPαV1, DiscoverX #93-1135C19) were added to each well, and the plate was incubated for 5 h at 37° C., 95% humidity and 5% CO2. Bioassay reagent 1 of the PathHunter Bioassay detection kit (DiscoverX 93-0001) was added to each well of the plate using a multichannel pipette followed by a 15 min incubation at room temperature. Afterwards bioassay reagent 2 was added followed by […] incubation at room temperature (incubation in the dark). The analysis of the data was performed using the luminescence signal generated by beta-galactosidase in the PathHunter reporter cell line. The luminescence measurement was done using a Pherastar Multi-Mode Reader. Dose-response curves & IC50 data were calculated with 4-parameter sigmoidal dose response formula.

Data set [2] is described as follows: Assay C: permeability in CACO-2 cells. In kind it is in vitro ADME. The settings on record: human, pH 7.2; for efflux ratio: Caco-2, Permeability B-A/Permeability A-B; for Papp A→B: Caco-2, apical to basolateral. Here is the method: Caco-2 cells (1−2×10^5 cells/1 cm^2 area) are seeded on filter inserts (Costar transwell polycarbonate or PET filters, 0.4 µm pore size) and cultured (DMEM) for 10 to 25 days. Compounds are dissolved in appropriate solvent (like DMSO, 1-20 mM stock solutions). […] The transport solution (TL) is applied to the apical or basolateral donor side for measuring A-B or B-A permeability (3 filter replicates), respectively. Samples are collected at the start and end of experiment from the donor and at various time intervals for up to 2 hours also from the receiver side for concentration measurement by HPLC-MS/MS or scintillation counting. Sampled receiver volumes are replaced with fresh receiver solution. Efflux Ratio (ER)=Permeability B-A/Permeability A-B

Another data set addresses T1, QPCTL (Homo sapiens, UniProt Q9NXS2).
T1 construct: made in house
Description: Assay A: biochemical QPCTL activity assay (MALDI-TOF MS, CD47 peptide substrate). The settings on record: 0.5 nM enzyme, 10 μM CD47 peptide substrate; read-out: Inhibition of QPCTL: IC50. How it is done:
(§3) QPCT or QPCTL dependent conversion of N-terminal glutamine to pyroglutamate of CD47 was monitored via MALDI-TOF MS. Test compounds were dissolved in 100% DMSO and serially diluted into clear 1,536-well microtiter plates. […] The plates were incubated for 10 min in a humidified incubator at 24° C. Subsequently, 2.5 μL of CD47 peptide substrate surrogate (^19[…]^33) was added to each well (final concentration: 10 μM for QPCTL/20 μM for QPCT). […] The plates were sealed with an adhesive foil, mixed for 30 s at 1,000 rpm and stored at room temperature until preparation of the MALDI target plates. MALDI target plates were prepared as described previously. […] QPCT or QPCTL activity was monitored by calculating the ratio between product and internal standard signals followed by normalization to high (100% activity) and low (0% activity) controls. Determination of compound potencies was obtained by fitting the dose-response data to a four-parameter logistical equation.

In the next data set the target is T2, QPCT (Homo sapiens, UniProt Q16769).
T2 construct: purchased Origine (OriGene) TP700028
Description: Assay A: biochemical QPCT activity assay (MALDI-TOF MS, CD47 peptide substrate). The conditions noted are these: 0.5 nM enzyme, 20 μM CD47 peptide substrate; read-out: Inhibition of QPCT: IC50. How it is done:
as §3

The test system of data set [3] is SIRPα signalling induced by A549 cells. Description: Assay B: SIRPα signalling assay using A549 cells. The class given is cell-based. The conditions noted are these: Homo sapiens, 48 h compound incubation, Jurkat PathHunter SIRPαV1 reporter cells, read-out: Inhibition of SIRPα signalling induced by A549 cells: IC50. How it is done: as §1, §2

T1 sequence (Q9NXS2 whole entry): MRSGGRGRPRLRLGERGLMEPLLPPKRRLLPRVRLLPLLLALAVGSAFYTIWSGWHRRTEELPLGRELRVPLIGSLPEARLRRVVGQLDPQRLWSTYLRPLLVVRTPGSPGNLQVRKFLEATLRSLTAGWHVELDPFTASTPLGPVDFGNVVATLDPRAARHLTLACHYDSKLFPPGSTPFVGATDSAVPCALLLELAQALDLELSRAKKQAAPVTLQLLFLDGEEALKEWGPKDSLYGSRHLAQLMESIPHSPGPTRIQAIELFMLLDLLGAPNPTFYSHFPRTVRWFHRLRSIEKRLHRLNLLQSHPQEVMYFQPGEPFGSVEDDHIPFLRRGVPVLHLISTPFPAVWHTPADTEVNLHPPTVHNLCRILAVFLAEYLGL
T2 sequence (Q16769 29-361): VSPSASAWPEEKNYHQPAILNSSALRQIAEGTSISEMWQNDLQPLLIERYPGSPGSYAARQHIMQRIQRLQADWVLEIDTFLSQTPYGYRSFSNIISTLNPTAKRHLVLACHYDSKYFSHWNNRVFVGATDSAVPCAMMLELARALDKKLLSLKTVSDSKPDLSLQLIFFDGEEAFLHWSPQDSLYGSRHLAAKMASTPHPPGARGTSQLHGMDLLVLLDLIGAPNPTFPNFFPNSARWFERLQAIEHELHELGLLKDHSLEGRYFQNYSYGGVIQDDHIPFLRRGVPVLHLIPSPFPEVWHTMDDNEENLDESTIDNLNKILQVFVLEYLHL

For `Cn1cnnc1C1(F)CCN(c2c(C#N)ccnc2-c2cnn3nc(-c4cscc4C#N)ccc23)CC1` [Example 26], the IC50 in data set [1] stood at 148 nM; on QPCTL it was 3 nM; on QPCT, 2 nM; in data set [3] it was 101 nM. Further, the efflux ratio in data set [2] was 11.5. Also, the Papp A→B in data set [2] was 7.2 ×10⁻⁶ cm/s.
In the case of `Cn1cnnc1C1(F)CCN(c2c(C#N)cc(C(F)(F)F)nc2-c2cnc3occc3c2)CC1` [Example 15], the IC50 worked out at 296 nM in data set [1], 15 nM on QPCTL, 58 nM on QPCT and 410 nM in data set [3]. Also, the efflux ratio in data set [2] was determined as 1.6. For the same molecule, the Papp A→B in data set [2] was 47 ×10⁻⁶ cm/s.
`Cn1cnnc1C1CCN(c2ncccc2-c2ccc(F)nc2)CC1` [SEN177, reference compound]: the figures for the IC50 in data set [1] and in data set [3] were 1360 nM and 214 nM, respectively.
In the case of `Cn1cnnc1C1(F)CCN(c2c(C#N)cc(C(C)(C)O)nc2-c2cnc3nn(C(C)(C)C)c(Cl)c3c2)CC1` [Example 2], the figures for the IC50 in data set [1] and in data set [3] were 20 nM and 40 nM, respectively. The Papp A→B in data set [2] amounted to 4.5 ×10⁻⁶ cm/s.
With `Cn1cnnc1C1(F)CCN(c2c(C#N)ccnc2-c2cnn3nc(-c4ccccc4C#N)ccc23)CC1` [Example 22], the IC50 in data set [1] stood at 117 nM; at QPCTL, 2 nM; at QPCT it was 2 nM; in data set [3], 51 nM.
Regarding `COc1cc(C#N)c(N2CCC(F)(c3nncn3C)CC2)c(-c2ccc(F)nc2)n1` [Example 5], the IC50 was found to be 617 nM in data set [1], 4 nM at QPCTL, 9 nM on QPCT and 60 nM in data set [3]. Besides, the efflux ratio in data set [2] was 1.6. Further, the Papp A→B in data set [2] was 27 ×10⁻⁶ cm/s.
As to `Cn1cnnc1C1(F)CCN(c2c(C#N)cc(C(F)(F)F)nc2-c2cnc3nc(C(C)(C)C)oc3c2)CC1` [Example 16], the IC50 was found to be 27 nM in data set [1] and 32 nM in data set [3]. The Papp A→B in data set [2] worked out at 33 ×10⁻⁶ cm/s.
With `Cn1cnnc1C1(F)CCN(c2c(C#N)ccnc2-c2cnn3nc(-c4ccccc4Cl)ccc23)CC1` [Example 29], the IC50 in data set [1] was found to be 64 nM; at QPCTL, 2 nM; at QPCT, 1 nM; in data set [3], 27 nM. In addition, the efflux ratio in data set [2] worked out at 1.7. Besides, the Papp A→B in data set [2] was found to be 39 ×10⁻⁶ cm/s.
Take `Cn1cnnc1C1(F)CCN(c2c(C#N)ccnc2-c2cnn3nc(-c4cccc(Cl)c4)ccc23)CC1` [Example 28]: the values for the 50% inhibitory concentration (IC50) in data set [1] and in data set [3] were 70 nM and 53 nM, respectively. Moreover, the Papp A→B in data set [2] stood at 28 ×10⁻⁶ cm/s.
In the case of `Cn1cnnc1C1(F)CCN(c2c(C#N)ccnc2-c2cnn3nc(-c4c(F)cccc4F)ccc23)CC1` [Example 21], the IC50 is 16 nM in data set [1], 2 nM on QPCTL, 1 nM at QPCT and 11 nM in data set [3].
With `Cn1cnnc1C1(F)CCN(c2c(C#N)ccnc2-c2cnc3nn(Cc4ccccc4)nc3c2)CC1` [Example 12], the IC50 in data set [1] was 150 nM; at QPCTL, 3 nM; on QPCT, 4 nM; in data set [3], 45 nM. Besides, the efflux ratio in data set [2] turned out to be 9.9. In addition, the Papp A→B in data set [2] is 9.4 ×10⁻⁶ cm/s.
In the case of `Cn1cnnc1C1(F)CCN(c2c(C#N)ccnc2-c2cnn3nc(-c4ccccc4F)ccc23)CC1` [Example 31], the IC50 in data set [1] stood at 54 nM; on QPCTL, 3 nM; on QPCT, 3 nM; in data set [3], 31 nM. For the same molecule, the efflux ratio in data set [2] was 1.2. In addition, in data set [2], the Papp A→B came out at 54 ×10⁻⁶ cm/s.
With `CC(C)c1ccccc1-c1ccc2c(-c3nccc(C#N)c3N3CCC(F)(c4nncn4C)CC3)cnn2n1` [Example 30], the IC50 in data set [1] was 87 nM; on QPCTL, 2 nM; on QPCT it was 1 nM; in data set [3] it was 17 nM. In data set [2], the efflux ratio worked out at 0.7. Also, the Papp A→B in data set [2] stood at 46 ×10⁻⁶ cm/s.
Take `Cn1cnnc1C1(F)CCN(c2c(C#N)cc(C3CC3(F)F)nc2-c2ccc(F)nc2)CC1` (stereo not shown) [Example 3]: the IC50 in data set [1] was determined as 131 nM; on QPCTL, 1 nM; at QPCT it was 4 nM; in data set [3], 40 nM. Further, in data set [2], the efflux ratio amounted to 1.3. This molecule gave an apparent permeability from apical to basolateral (Papp A→B) in data set [2] of 47 ×10⁻⁶ cm/s.
`COc1ccc(-c2ccc3c(-c4nccc(C#N)c4N4CCC(F)(c5nncn5C)CC4)cnn3n2)c(F)c1` [Example 23]: the IC50 in data set [1] was 158 nM; at QPCTL, 4 nM; on QPCT it was 4 nM; in data set [3] it was 46 nM.
For the molecule `Cn1cnnc1C1(F)CCN(c2c(C#N)ccnc2-c2cnn3nc(-c4cc(Cl)ccc4C#N)ccc23)CC1` [Example 18], the IC50 amounted to 44 nM in data set [1], 2 nM at QPCTL, 1 nM on QPCT and 16 nM in data set [3].
For `Cc1ccc(-c2ccc3c(-c4nccc(C#N)c4N4CCC(F)(c5nncn5C)CC4)cnn3n2)c(C)c1` [Example 32], the IC50 was 72 nM in data set [1] and 21 nM in data set [3]. Also, the Papp A→B in data set [2] was found to be 60 ×10⁻⁶ cm/s.
Take `Cn1cnnc1C1(F)CCN(c2c(C#N)ccnc2-c2cnc3nc(-c4cccc(Cl)c4)ccn23)CC1` [Example 33]: the IC50 in data set [1] was determined as 53 nM; at QPCTL, 1 nM; at QPCT, 2 nM; in data set [3], 30 nM. In addition, the efflux ratio in data set [2] is 6.2. This molecule also yielded a Papp A→B in data set [2] of 13 ×10⁻⁶ cm/s.
On to `Cn1cnnc1C1(F)CCN(c2c(C#N)cc(C3CC3(F)F)nc2-c2cnc3nn(C(C)(C)C)cc3c2)CC1` (stereo not shown) [Example 4], for which the values for the IC50 in data set [1] and in data set [3] were 15 nM and 17 nM, respectively. The molecule further showed a Papp A→B in data set [2] of 8.8 ×10⁻⁶ cm/s.
Regarding `Cc1noc(C)c1-c1ccc2c(-c3nccc(C#N)c3N3CCC(F)(c4nncn4C)CC3)cnn2n1` [Example 24], the half-maximal inhibitory concentration (IC50) in data set [1] is 981 nM; on QPCTL, 14 nM; on QPCT, 8 nM; in data set [3], 184 nM. Further, the efflux ratio in data set [2] worked out at 4.6. Besides, the Papp A→B in data set [2] was 16 ×10⁻⁶ cm/s.
Consider `Cn1cnnc1C1(F)CCN(c2c(C#N)ccnc2-c2cnn3nc(-c4ccc(Cl)cc4Cl)ccc23)CC1` [Example 20], for which the IC50 came out at 83 nM in data set [1], 2 nM at QPCTL, 3 nM on QPCT and 29 nM in data set [3].
Consider `Cn1cc(-c2ccc3c(-c4nccc(C#N)c4N4CCC(F)(c5nncn5C)CC4)cnn3n2)cn1` [Example 25], for which the IC50 worked out at 150 nM in data set [1], 1 nM on QPCTL, 6 nM on QPCT and 78 nM in data set [3]. The efflux ratio in data set [2] amounted to 7.7. The molecule also displayed a Papp A→B in data set [2] of 5.3 ×10⁻⁶ cm/s.
Regarding `Cn1cnnc1C1(F)CCN(c2c(C#N)ccnc2-c2cnc(F)c(N)c2)CC1` [Example 9], the IC50 in data set [1] stood at 103 nM; on QPCTL it was 2 nM; at QPCT it was 4 nM; in data set [3], 39 nM. The efflux ratio in data set [2] worked out at 4.5. The same molecule had a Papp A→B in data set [2] of 5.8 ×10⁻⁶ cm/s.
In the case of `Cn1cnnc1C1(F)CCN(c2c(C#N)ccnc2-c2cnn3nc(-c4cccnc4Cl)ccc23)CC1` [Example 17], the IC50 in data set [1] came out at 274 nM; on QPCTL it was 5 nM; at QPCT, 5 nM; in data set [3] it was 71 nM.
For the molecule `Cc1ccccc1-c1ccc2c(-c3nccc(C#N)c3N3CCC(F)(c4nncn4C)CC3)cnn2n1` [Example 19], the values for the IC50 in data set [1] and in data set [3] were 20 nM and 6 nM, respectively.
